Data reported in patent US20250325677A1, “STAT6 DEGRADERS” (Gilead Sciences, Inc., priority 2024, published 2025).

Each compound was assayed against STAT6 (Homo sapiens (Human), UniProt P42226) (assay: STAT6 degrader assay (HiBiT, HeLa LgBiT clone 4.14)). Conditions: HeLa LgBiT clone 4.14, 4-24 h.
Sequence of STAT6 (P42226 whole entry): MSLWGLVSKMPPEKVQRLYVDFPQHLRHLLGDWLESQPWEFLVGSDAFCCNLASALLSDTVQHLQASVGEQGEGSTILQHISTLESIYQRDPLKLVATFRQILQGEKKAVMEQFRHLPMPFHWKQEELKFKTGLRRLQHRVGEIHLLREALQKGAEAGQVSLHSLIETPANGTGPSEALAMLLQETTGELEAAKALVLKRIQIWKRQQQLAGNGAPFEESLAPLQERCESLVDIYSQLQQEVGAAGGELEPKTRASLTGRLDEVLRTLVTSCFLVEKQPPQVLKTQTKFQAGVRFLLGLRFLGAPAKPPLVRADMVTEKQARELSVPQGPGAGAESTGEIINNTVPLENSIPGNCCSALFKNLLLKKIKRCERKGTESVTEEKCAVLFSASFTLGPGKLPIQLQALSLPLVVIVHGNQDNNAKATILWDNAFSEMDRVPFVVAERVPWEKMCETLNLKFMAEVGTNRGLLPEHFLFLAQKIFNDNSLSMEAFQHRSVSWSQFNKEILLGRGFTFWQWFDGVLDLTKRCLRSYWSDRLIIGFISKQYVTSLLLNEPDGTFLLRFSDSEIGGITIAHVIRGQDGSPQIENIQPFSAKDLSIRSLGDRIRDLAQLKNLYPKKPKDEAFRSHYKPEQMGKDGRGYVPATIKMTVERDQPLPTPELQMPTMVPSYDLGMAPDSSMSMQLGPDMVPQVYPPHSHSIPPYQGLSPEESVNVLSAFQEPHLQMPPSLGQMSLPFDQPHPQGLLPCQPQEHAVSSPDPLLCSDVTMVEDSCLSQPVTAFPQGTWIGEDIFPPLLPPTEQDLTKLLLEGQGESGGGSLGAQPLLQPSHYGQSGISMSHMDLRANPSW
Type: cell-based
Experimental: This was a HiBit based assay. A HeLa cell line stably transfected with a small protein, LgBit (Large Bit) was obtained from Promega. These cells express endogenous STAT6. A small 11 amino acid gene sequence (HiBiT) was inserted in the STAT6 gene using CRISPR technology. Once STAT6 protein is expressed in the cells, the HiBiT sequence will bind the LgBit in the cells resulting in a functional NanoBiT protein, giving a luminescent tag to STAT6, see FIG. 2.
Single cell clones were prepared and the clone 4.14 was selected for the assay based on that clone showing high luminescence, high STAT6 phosphorylation upon stimulation with IL-4, and inhibition of luminescence when cells were treated with STAT6 siRNA.
HeLa LgBiT clone 4.14 cells were suspended in DMEM with 10% FCS, 1% Pen/Strep, Na-pyrovate and Hygromycin B, at a concentration of 1.25*105 cells pr mL. 5000 cells were added pr well of a 384 well plate and 20 nL of compound was added by Echo® liquid handler. NN6394A (terfenadine, a toxic compound) was added to control wells at 50 μM concentration to establish the assay window. In these wells the cells are dead which equals 100% degradation of STAT6.
After 4-24 h of incubation at 37° C. under 5% CO2/95% air, 5 μL substrate (Nano-GLO®) was added to the wells and the plates were centrifuged and incubated for 0.5 h.
The luminescence in the wells as a measure of non-degraded STAT6 was measured in a plate reader (BMG Pherastar FSX). The measured DC50 (in nM) was determined.
The dose-response curves Examples 3p1, 3e50, 3e17, and 3e51 are shown below (where percent degradation is plotted vs. test compound concentration in M on a log-scale).
With “3-(4-((4-((1-(4-(1-((4-(1H-indazol-5-yl)-1-methyl-1H-pyrrolo[2,3-b]pyridin-2-yl)methyl)-piperidin-4-yl)benzoyl)piperidin-4-yl)methyl)piperidin-1-yl)methyl)-3-(2-methoxyethyl)-2-oxo-2,3-dihydro-1H-benzo[d]imidazol-1-yl)piperidine-2,6-dione [Example 3i2]” the “STAT6 degradation Emax (%)” value was 40-50%.

Same assay, conditions: HeLa LgBiT clone 4.14, 4-24 h; geometric mean; given for compounds with >80% Emax; read-out: STAT6 degradation DC50
`CNc1ccc(-c2ccnc3c2cc([C@H](C)N2CCC(c4ccc(C(=O)N5CCC(CN6CCN(Cc7ccc8c(c7)n(C)c(=O)n8[C@@H]7CCC(=O)NC7=O)C[C@@H]6C)CC5)cc4)CC2)n3C)cn1` (single isomer, unassigned) [Example 3h3] showed a DC50 of 1.1 nM.
`Cc1cc(C(=O)N2CCC(CN3CCN(Cc4ccc5c(c4)n(C4CC4)c(=O)n5[C@H]4CCC(=O)NC4=O)C[C@@H]3C)CC2)cc(F)c1C1=CCN([C@@H](C)c2cc3c(-c4ccc(N)nc4)ccnc3n2C)CC1` (single isomer, unassigned) [Example 3h16] gave a DC50 of 1.6 nM.
`Cc1cc(C(=O)N2CCC(CN3CCN(Cc4ccc5c(c4)n(C4CC4)c(=O)n5[C@@H]4CCC(=O)NC4=O)C[C@@H]3C)CC2)cc(F)c1C1=CCN([C@@H](C)c2cc3c(-c4ccc(N)nc4)ccnc3n2C)CC1` (single isomer, unassigned) [Example 3h17] was tested, and the DC50 was 0.8 nM.
`Cn1c(CN2CCC(c3ccc(C(=O)N4CCC(OCC#Cc5cccc6c5n(C)c(=O)n6C5CCC(=O)NC5=O)CC4)cc3)CC2)cc2c(-c3ccc4[nH]ncc4c3)ccnc21` (stereo not shown) [Example 3a1, 3-(4-(3-((1-(4-(1-((4-(1H-indazol-5-yl)-1-methyl-1H-pyrrolo[2,3-b]pyridin-2-yl)methyl)piperidin-4-yl)benzoyl)piperidin-4-yl)oxy)prop-1-yn-1-yl)-3-methyl-2-oxo-2,3-dihydro-1H-benzo[d]imidazol-1-yl)piperidine-2,6-dione] showed a DC50 of 4.9 nM.
With `Cn1c(CN2CCC(c3ccc(C(=O)N4CCC(OCC#Cc5ccc6c(c5)n(C)c(=O)n6C5CCC(=O)NC5=O)CC4)cc3)CC2)cc2c(-c3ccc4[nH]ncc4c3)ccnc21` (stereo not shown) [Example 3b1, 3-(5-(3-((1-(4-(1-((4-(1H-indazol-5-yl)-1-methyl-1H-pyrrolo[2,3-b]pyridin-2-yl)methyl)piperidin-4-yl)benzoyl)piperidin-4-yl)oxy)prop-1-yn-1-yl)-3-methyl-2-oxo-2,3-dihydro-1H-benzo[d]imidazol-1-yl)piperidine-2,6-dione] the DC50 was 2.4 nM.
In the case of `Cn1c(CN2CCC(c3ccc(C(=O)N4CCC(CN5CCN(Cc6ccc7c(c6)n(C)c(=O)n7C6CCC(=O)NC6=O)CC5)CC4)cc3)CC2)cc2c(-c3ccc4[nH]ncc4c3)ccnc21` (stereo not shown) [Example 3e1, 3-(5-((4-((1-(4-(1-((4-(1H-indazol-5-yl)-1-methyl-1H-pyrrolo[2,3-b]pyridin-2-yl)methyl)piperidin-4-yl)benzoyl)piperidin-4-yl)methyl)piperazin-1-yl)methyl)-3-methyl-2-oxo-2,3-dihydro-1H-benzo[d]imidazol-1-yl)piperidine-2,6-dione], the DC50 is reported as 0.6 nM.
`Cn1c(CN2CCC(c3ccc(C(=O)N4CCC(CN5CCN(Cc6ccc7c(c6)n(C6CC6)c(=O)n7C6CCC(=O)NC6=O)CC5)CC4)cc3)CC2)cc2c(-c3ccc4[nH]ncc4c3)ccnc21` (stereo not shown) [Example 3e6, 3-(5-((4-((1-(4-(1-((4-(1H-indazol-5-yl)-1-methyl-1H-pyrrolo[2,3-b]pyridin-2-yl)methyl)piperidin-4-yl)benzoyl)piperidin-4-yl)methyl)piperazin-1-yl)methyl)-3-cyclopropyl-2-oxo-2,3-dihydro-1H-benzo[d]imidazol-1-yl)piperidine-2,6-dione] gave a DC50 of 1.4 nM.
Work on `COCCn1c(=O)n(C2CCC(=O)NC2=O)c2ccc(CN3CCN(CC4CCN(C(=O)c5ccc(C6CCN(Cc7cc8c(-c9ccc(N)nc9)ccnc8n7C)CC6)cc5)CC4)CC3)cc21` (stereo not shown) [Example 3e7, 3-(5-((4-((1-(4-(1-((4-(6-aminopyridin-3-yl)-1-methyl-1H-pyrrolo[2,3-b]pyridin-2-yl)methyl)piperidin-4-yl)benzoyl)piperidin-4-yl)methyl)piperazin-1-yl)methyl)-3-(2-methoxyethyl)-2-oxo-2,3-dihydro-1H-benzo[d]imidazol-1-yl)piperidine-2,6-dione] yielded a DC50 of 9 nM.
In the case of `C[C@@H](c1cc2c(-c3ccc4[nH]ncc4c3)ccnc2n1C)N1CCC(c2ccc(C(=O)N3CCC(CN4CCN(Cc5ccc6c(c5)n(C5CC5)c(=O)n6C5CCC(=O)NC5=O)CC4)CC3)cc2)CC1` (stereo partly drawn) [Example 3e11, 3-(5-((4-((1-(4-(1-((S)-1-(4-(1H-indazol-5-yl)-1-methyl-1H-pyrrolo[2,3-b]pyridin-2-yl)ethyl)piperidin-4-yl)benzoyl)piperidin-4-yl)methyl)piperazin-1-yl)methyl)-3-cyclo-propyl-2-oxo-2,3-dihydro-1H-benzo[d]imidazol-1-yl)piperidine-2,6-dione], the DC50 is reported as 0.9 nM.
`Cc1cc(C(=O)N2CCC(CN3CCN(Cc4ccc5c(c4)n(C)c(=O)n5C4CCC(=O)NC4=O)CC3)CC2)cc(C)c1C1=CCN(Cc2cc3c(-c4ccc(N)nc4)ccnc3n2C)CC1` (stereo not shown) [Example 3e12, 3-(5-((4-((1-(4-(1-((4-(6-aminopyridin-3-yl)-1-methyl-1H-pyrrolo[2,3-b]pyridin-2-yl)methyl)-1,2,3,6-tetrahydropyridin-4-yl)-3,5-dimethylbenzoyl)piperidin-4-yl)methyl)piperazin-1-yl)methyl)-3-methyl-2-oxo-2,3-dihydro-1H-benzo[d]imidazol-1-yl)piperidine-2,6-dione] gave a DC50 of 0.9 nM.
`Cn1c(CN2CCC(c3ccc(C(=O)N4CCC(CN5CCN(Cc6ccc7c(c6F)n(C)c(=O)n7C6CCC(=O)NC6=O)CC5)CC4)cc3)CC2)cc2c(-c3ccc(N)nc3)ccnc21` (stereo not shown) [Example 3e14, 3-(5-((4-((1-(4-(1-((4-(6-aminopyridin-3-yl)-1-methyl-1H-pyrrolo[2,3-b]pyridin-2-yl)methyl)piperidin-4-yl)benzoyl)piperidin-4-yl)methyl)piperazin-1-yl)methyl)-4-fluoro-3-methyl-2-oxo-2,3-dihydro-1H-benzo[d]imidazol-1-yl)piperidine-2,6-dione] gave a DC50 of 1.5 nM.
With `CC(C)[C@H]1CN(Cc2ccc3c(c2)n(C)c(=O)n3C2CCC(=O)NC2=O)CCN1CC1CCN(C(=O)c2ccc(C3CCN([C@@H](C)c4cc5c(-c6ccc(N)nc6)ccnc5n4C)CC3)cc2)CC1` (stereo partly drawn) [Example 3e21, 3-(5-(((S)-4-((1-(4-(1-((S)-1-(4-(6-aminopyridin-3-yl)-1-methyl-1H-pyrrolo[2,3-b]pyridin-2-yl)ethyl)piperidin-4-yl)benzoyl)piperidin-4-yl)methyl)-3-iso-propylpiperazin-1-yl)methyl)-3-methyl-2-oxo-2,3-dihydro-1H-benzo[d]imidazol-1-yl)piperidine-2,6-dione] the DC50 was 2.8 nM.

Same assay, conditions: HeLa LgBiT clone 4.14, 4-24 h; read-out: STAT6 degradation Emax (%)
Compound `Cn1c(CN2CCC(c3ccc(C(=O)N4CCC(CN5CCC(c6ccc7c(c6)n(C)c(=O)n7C6CCC(=O)NC6=O)CC5)CC4)cc3)CC2)cc2c(-c3ccc4[nH]ncc4c3)ccnc21` (stereo not shown) [Example 3d1, 3-(5-(1-((1-(4-(1-((4-(1H-indazol-5-yl)-1-methyl-1H-pyrrolo[2,3-b]pyridin-2-yl)methyl)piperidin-4-yl)benzoyl)piperidin-4-yl)methyl)piperidin-4-yl)-3-methyl-2-oxo-2,3-dihydro-1H-benzo[d]imidazol-1-yl)piperidine-2,6-dione] has an Emax of 50 to 60%.
`C[C@@H]1CN(Cc2ccc3c(c2)n(C)c(=O)n3C2CCC(=O)NC2=O)CCN1CC1CCN(C(=O)c2ccc(C3CCN(Cc4cc5c(-c6ccc(N)nc6)ccnc5n4C)CC3)cc2)CC1` (stereo partly drawn) [Example 3e8, 3-(5-(((R)-4-((1-(4-(1-((4-(6-aminopyridin-3-yl)-1-methyl-1H-pyrrolo[2,3-b]pyridin-2-yl)methyl)piperidin-4-yl)benzoyl)piperidin-4-yl)methyl)-3-methylpiperazin-1-yl)methyl)-3-methyl-2-oxo-2,3-dihydro-1H-benzo[d]imidazol-1-yl)piperidine-2,6-dione] was tested, and the Emax was 50 to 60%.
With `C[C@@H](c1cc2c(-c3ccc(N)nc3)ccnc2n1C)N1CCC(c2ccc(C(=O)N3CCC(CN4CCN(Cc5ccc6c(c5)n(C5CC5)c(=O)n6C5CCC(=O)NC5=O)CC4)CC3)cc2)CC1` (stereo partly drawn) [Example 3e10, 3-(5-((4-((1-(4-(1-((S)-1-(4-(6-aminopyridin-3-yl)-1-methyl-1H-pyrrolo[2,3-b]pyridin-2-yl)ethyl)piperidin-4-yl)benzoyl)piperidin-4-yl)methyl)piperazin-1-yl)methyl)-3-cyclopropyl-2-oxo-2,3-dihydro-1H-benzo[d]imidazol-1-yl)piperidine-2,6-dione] the Emax was under 20%.
